Assay results reported in patent publication US11921120B2, “Compositions and methods for identifying and modulating metabolic health” (Duke University, priority 2015, dated 2024).

Assays:
col5a1 = experiment: RT-PCR of col5a1 mRNA isoforms after Vivo-Morpholino injection; assay type: in vivo, zebrafish; details: serial intra-abdominal injection, 80 ng/mg vMO
Description: Zebrafish qRT-PCR. RNA extraction, PCR and quantitative RT-PCR (qRT-PCR) was performed as previously described using total RNA from dissected whole VAT tissue of 10 mm zebrafish. (Rawls J F, et al. (2007), PNAS 104(18):7622-7627.) VAT and SAT were dissected from adult Ekkwill strain wild-type zebrafish and used to assess plxnd1 mRNA levels (FIG. 18(B)). Samples contained 5-8 siblings or mutants per group, and qRT-PCR was ran with three biological replicate groups, and reactions ran in triplicate.
Zebrafish were raised under normal conditions until 30-50 days post fertilisation. Fish were anesthetised in 0.67 g/L MS222 and SL measured using an eyepiece reticle. Intra-abdominal injections were then performed on a Nanoject II injector (Drummond) as previously described. (McMenamin S K, et al (2013), Endocrinology 154(4):1476-1487.) At each injection, dosage was adjusted according to body weight (mg) using the following equation: mg=−48.10+7.36*SL+0.68*(SL-8.94)^2. (McMenamin S K, et al (2013), Endocrinology 154(4):1476-1487.) Concentration of individual compounds at injection were (relative to volume/mass of fish): 80 ng/mg col5a1-ile2 vMO (5′-[…]-3′; SEQ ID NO.: 55) or col5a1-e3i3 vMO (5′-[…]-3′; SEQ ID NO.: 56) (Gene-Tools, LLC), 100 μM EDHB (Sigma) and 80 ng/mg EdU. Control animals were injected with either a standard control vMO (5′-[…]-3′; SEQ ID NO.: 57) (Gene-Tools) or 0.1% DMSO.

[1] = Turbidity assay of ECM extracted from VAT (in vitro fibrillogenesis); design: species or system zebrafish; details: ECM of sibling VAT, vMO injected before extraction
Description: To assess fibrillogenesis in plxnd1 mutant VAT, ECM is extracted from zebrafish VAT, and fibril polymerization and gel formation is induced in vitro (FIG. 13). Turbidity assays are used to determine the rate and ultimate extent of fibrillogenesis. ECM was purified from dissected zebrafish VAT (˜100 VATS per tube, triplicate tubes per condition) as previously described. (Uriel S, et al. (2009), Tissue engineering. Part C, Methods 15(3):309-321.) Urea extraction was allowed to proceed for 14-21 days at 4° C. Protein concentration (˜7 mg/ml) was assessed by the Bradford assay (Thermo Scientific). […] To induce fibril polymerization and gel formation, acetic acid was added to a pH of 7. Turbidity assays were conducted as previously described using a Spectronic 20D+ spectrometer (Thermo Scientific). (Wood G C & Keech M K (1960), The Biochemical journal 75:588-598.)

Type V collagen (Col5) = experiment: Col5 immunofluorescence in VAT after vMO injection; assay type: in vivo, zebrafish; details: endothelial cell and peri-adipocyte locations
Description: Immunohistochemistry was performed as previously described (Kanther M, et al. (2011), Gastroenterology 141(1):197-207.) Immunohistochemistry was conducted with antibodies to Type V collagen (Col5) (Rockland, #600-401-107S), Laminin (Sigma, #L-9393), WCL15 (Romano N, et al. (1998), Anatomy and embryology 198(1):31-41; van der Sar A M, et al. (2004), Trends in microbiology 12(10):451-457), and Alexa 568 (Invitrogen, #A-1 1011). Transmission electron microscopy was carried out as described previously. (Flynn E J, et al. (2009), Journal of lipid research 50(8):1641-1652.) Whole 10-12 mm SL fish were processed for paraffin sectioning and Masson's trichrome, combined Masson's and Elastin, periodic acid Schiff (PAS) and Alcian Blue stains. (Sabaliauskas N A, et al. (2006), Methods 39(3):246-254.)
Zebrafish were raised under normal conditions until 30-50 days post fertilisation. Fish were anesthetised in 0.67 g/L MS222 and SL measured using an eyepiece reticle. Intra-abdominal injections were then performed on a Nanoject II injector (Drummond) as previously described. (McMenamin S K, et al (2013), Endocrinology 154(4):1476-1487.) At each injection, dosage was adjusted according to body weight (mg) using the following equation: mg=−48.10+7.36*SL+0.68*(SL-8.94)^2. […]

Substance | splicing of col5a1 (RT-PCR, mRNA isoform) (col5a1) | in vitro fibrillogenesis [1] | Col5 protein levels (Col5 reactivity) (Type V collagen (Col5))
col5a1-e3i3 vMO: Vivo-Morpholino 5′-GAGTTCCTACTTACCTCAAACACCT-3′ (SEQ ID NO.: 56) targeting zebrafish col5a1 exon 3-intron 3 boundary (all phosphorodiamidate morpholino (PMO); Vivo-Morpholino, delivery moiety not given here, further chemistry not fully specified) | skipping of exon 3 |  | 
col5a1-ile2 vMO: Vivo-Morpholino 5′-GAAACATGGATGCTACAGAGAGAGA-3′ (SEQ ID NO.: 55) targeting zebrafish col5a1 intron 1-exon 2 boundary (all phosphorodiamidate morpholino (PMO); Vivo-Morpholino, delivery moiety not given here, further chemistry not fully specified) | inclusion of part of intron 1 | did not affect | significantly reduced
